Reference: patent US9732088B2, “C2-carbocyclic iminothiazine dioxides as BACE inhibitors, compositions, and their use” (Merck Sharp & Dohme Corp., priority 2014, dated 2017)
pKi: −log10 of the molar value.

Key:
[1] = molecular target: purified human Cathepsin-D (Homo sapiens (Human), UniProt P07339); test: Cathepsin-D Assay (time-resolved FRET); assay type: biochemical; conditions: Assay 4; Ki calculated from IC50 by Cheng-Prusoff;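 also: Europium-labelled peptide substrate with QSY7 quencher, cleavage read as 620 nm fluorescence after 30 min preincubation then 30 min reaction at 30 °C, pH 5.0, inhibition lowers signal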
[2] = molecular target: purified human autoBACE-2 (Homo sapiens (Human), UniProt Q9Y5Z0); test: BACE-2 Assay (BACE-HTRF assay); assay type: biochemical; conditions: Assay 2; Ki calculated from IC50 by Cheng-Prusoff; read-out: BACE2 Ki
Method: The compounds of the invention were determined to be potent inhibitors of BACE-2 using the following assay. Inhibitor IC50s at purified human autoBACE-2 are determined in a time-resolved endpoint proteolysis assay that measures hydrolysis of the QSY7-[…]-Eu-amide FRET peptide substrate (BACE-HTRF assay). BACE-mediated hydrolysis of this peptide results in an increase in relative fluorescence (RFU) at 620 nm after excitation with 320 nm light Inhibitor compounds, prepared at 3× the desired final concentration in 1×BACE assay buffer (20 mM sodium acetate pH 5.0, 10% glycerol, 0.1% Brij-35) supplemented with 7.5% DMSO are pre-incubated with an equal volume of autoBACE-2 enzyme diluted in 1×BACE assay buffer (final enzyme concentration 1 nM) in black 384-well NUNC plates for 30 minutes at 30° C. […] DMSO is present at […] final concentration in the assay. Following laser excitation of sample wells at 320 nm, the fluorescence signal at 620 nm is collected for 400 ms following a 50 μs delay on a RUBYstar HTRF plate reader (BMG Labtechnologies). Raw RFU data is normalized to maximum (1.0 nM BACE/DMSO) and minimum (no enzyme/DMSO) RFU values. IC50 values are determined by nonlinear regression analysis (sigmoidal dose response, variable slope) of percent inhibition data with minimum and maximum values set to 0 and 100 percent respectively. Similar IC50s are obtained when using raw RFU data. The Ki values are calculated from the IC50 using the Cheng-Prusoff equation.

BACE-1 = BACE-1 (Homo sapiens (Human), UniProt P56817); test: BACE-1 Cellular Assay (Aβ in HEK293-APPswe/lon cells); assay type: cell-based; conditions: 4 hours
Method: Assay 3: BACE-1 Cellular Assay
Certain compounds of the invention, identified in the tables herein, were determined to be potent inhibitors of BACE-1 in the following cellular assay. HEK293 cells are obtained from the American Type Culture Collection (ATCC) and stably transfected with the human amyloid precursor protein cDNA containing the FAD Swedish (enhances β-secretase processing) and London (enhances Aβ42 cleavage) mutations. A HEK293 stable clone with Aβ expression (HEK293-APP^swe/lon) is identified and maintained at 37° C., 5% CO2 in the ATCC-recommended growth media supplemented with hygromycin. […] Aβ40 or Aβ42 are measured in 15 μl of media using a mesoscale based ELISA assay. Full length Aβ40 and Aβ42 peptides are captured with the N-terminal specific biotinylated-WO2 monoclonal antibody and detected using either the ruthenylated Aβ40 C-terminal specific monoclonal antibody, G2-10 or the ruthenylated Aβ42 C-terminal specific monoclonal antibody G2-11 respectively. Raw electrochemiluminescnce values are measured using a Mesoscale Sector Imager plate reader and are plotted as a function of compound concentration. IC50 values are interpolated from the data using nonlinear regression analysis (Sigmoidal dose response fit with variable slope) of the data using GraphPad Prism software.

[3] = molecular target: soluble human BACE-1 catalytic domain (Homo sapiens (Human), UniProt P56817); test: BACE-1 Ki Assay (BACE-1 HTRF FRET Assay); assay type: biochemical; conditions: Assay 1; Ki calculated from IC50 by Cheng-Prusoff
Method: Assay 1: BACE-1 Ki Assay (BACE-1 HTRF FRET Assay)
The compounds of the invention were determined to be potent inhibitors of BACE-1 using the following assay.
The following reagents were used in this assay. Na^+-Acetate pH 5.0; 1% Brij-35; Glycerol; Dimethyl Sulfoxide (DMSO); Recombinant human soluble BACE-1 catalytic domain (>95% pure); APP Swedish mutant peptide substrate (QSY7-APP^swe-Eu): QSY7-[…]-Europium-amide.
A homogeneous time-resolved FRET assay can be used to determine IC50 values for inhibitors of the soluble human BACE-1 catalytic domain. This assay monitors the increase of 620 nm fluorescence that resulted from BACE-1 cleavage of an APPswedish APP^swe mutant peptide FRET substrate (QSY7-[…]-Europium-amide). This substrate contains an N-terminal QSY7 moiety that serves as a quencher of the C-terminal Europium fluorophore (620 nm Em). In the absence of enzyme activity, 620 nm fluorescence is low in the assay and increased linearly over 3 hours in the presence of uninhibited BACE-1 enzyme. Inhibition of BACE-1 cleavage of the QSY7-APP^swe-Eu substrate by inhibitors is manifested as a suppression of 620 nm fluorescence.
Varying concentrations of inhibitors at 3× the final desired concentration in a volume of […] are preincubated with purified human BACE-1 catalytic domain (3 nM in 10 μl) for 30 minutes at 30° C. in reaction buffer containing 20 mM Na-Acetate pH 5.0, 10% glycerol, 0.1% Brij-35 and 7.5% DSMO. Reactions are initiated by addition of 10 μl of 600 nM QSY7-APP^swe-Eu substrate (200 nM final) to give a final reaction volume of 30 μl in a 384 well Nunc HTRF plate. The reactions are incubated at 30° C. for 1.5 hours. The 620 nm fluorescence is then read on a Rubystar HTRF plate reader (BMG Labtechnologies) using a […] delay followed by a 400 millisecond acquisition time window. Inhibitor IC50 values are derived from non-linear regression analysis of concentration response curves. Ki values are then calculated from IC50 values using the Cheng-Prusoff equation using a previously determined […] of 8 μM for the QSY7-APP^swe-Eu substrate at BACE-1. The example compounds of the invention were measured in this assay.

BACE-1, sequence (P56817 46-501): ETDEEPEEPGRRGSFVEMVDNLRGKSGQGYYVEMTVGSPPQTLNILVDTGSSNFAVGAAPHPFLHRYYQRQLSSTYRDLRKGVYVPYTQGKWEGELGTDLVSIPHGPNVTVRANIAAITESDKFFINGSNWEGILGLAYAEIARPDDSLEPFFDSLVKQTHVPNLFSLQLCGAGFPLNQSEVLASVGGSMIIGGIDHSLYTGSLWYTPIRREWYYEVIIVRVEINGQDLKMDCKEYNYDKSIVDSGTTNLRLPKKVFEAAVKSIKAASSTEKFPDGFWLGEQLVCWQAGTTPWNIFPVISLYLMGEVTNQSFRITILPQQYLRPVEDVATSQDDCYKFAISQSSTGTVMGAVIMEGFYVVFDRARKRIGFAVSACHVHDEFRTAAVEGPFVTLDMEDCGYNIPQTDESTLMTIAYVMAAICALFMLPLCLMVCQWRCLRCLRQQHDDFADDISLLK
purified human autoBACE-2, sequence (Q9Y5Z0 63-466): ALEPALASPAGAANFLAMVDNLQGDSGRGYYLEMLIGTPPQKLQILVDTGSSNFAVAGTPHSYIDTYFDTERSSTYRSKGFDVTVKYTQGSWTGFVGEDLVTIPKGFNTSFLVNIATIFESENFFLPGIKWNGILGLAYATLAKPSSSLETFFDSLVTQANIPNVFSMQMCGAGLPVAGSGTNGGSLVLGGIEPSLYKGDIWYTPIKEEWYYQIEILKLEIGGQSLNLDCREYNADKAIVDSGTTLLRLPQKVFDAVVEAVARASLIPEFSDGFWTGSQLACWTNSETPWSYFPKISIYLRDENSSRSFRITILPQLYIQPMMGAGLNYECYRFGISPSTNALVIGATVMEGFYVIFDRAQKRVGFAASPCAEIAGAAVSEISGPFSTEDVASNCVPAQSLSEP
soluble human BACE-1 catalytic domain, sequence (P56817 75-416): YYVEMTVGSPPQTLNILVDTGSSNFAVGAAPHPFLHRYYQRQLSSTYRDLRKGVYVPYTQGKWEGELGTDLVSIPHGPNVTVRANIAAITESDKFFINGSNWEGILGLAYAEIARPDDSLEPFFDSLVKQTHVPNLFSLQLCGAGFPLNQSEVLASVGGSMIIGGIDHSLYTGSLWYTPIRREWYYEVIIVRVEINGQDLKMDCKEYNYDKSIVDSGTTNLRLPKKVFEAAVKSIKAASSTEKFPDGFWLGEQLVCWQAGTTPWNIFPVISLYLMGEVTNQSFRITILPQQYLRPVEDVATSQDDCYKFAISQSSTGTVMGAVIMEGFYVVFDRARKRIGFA
purified human Cathepsin-D, sequence (P07339 65-412): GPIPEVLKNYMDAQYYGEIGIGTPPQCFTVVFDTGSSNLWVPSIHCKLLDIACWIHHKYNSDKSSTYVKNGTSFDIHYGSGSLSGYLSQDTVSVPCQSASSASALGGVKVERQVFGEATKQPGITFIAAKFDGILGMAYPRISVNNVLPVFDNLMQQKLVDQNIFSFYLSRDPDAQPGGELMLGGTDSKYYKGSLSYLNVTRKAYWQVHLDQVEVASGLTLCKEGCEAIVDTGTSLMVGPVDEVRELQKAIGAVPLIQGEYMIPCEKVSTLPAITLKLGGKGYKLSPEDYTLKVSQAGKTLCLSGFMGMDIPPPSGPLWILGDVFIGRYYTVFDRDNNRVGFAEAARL

SMILES | Ki [1] [nM] | pKi [2] | IC50 (BACE-1) [nM] | pKi [3]
C[C@@]1(c2nc(Nc3nccc4cc(C#N)cnc34)ccc2F)CS(=O)(=O)[C@@](CF)(C2CC2)C(N)=N1 [Example 2, 8-({6-[(3R,6S)-6-cyclopropyl-6-(fluoromethyl)-5-imino-3-methyl-1,1-dioxidothiomoipholin-3-yl]-5-fluoropyridin-2-yl}amino)-1,7-naphthyridine-3-carbonitrile] | 159 | 8.16 | 52 | 7.82
C[C@@]1(c2cc(Nc3nccc4cc(Br)cnc34)ncc2F)CS(=O)(=O)[C@@](C)(C2CC2)C(N)=N1 [Example 3, 3-bromo-N-{4-[(3R,6S)-6-cyclopropyl-5-imino-3,6-dimethyl-1,1-dioxidothiomorpholin-3-yl]-5-fIuoropyridin-2-yl}-1,7-naphthyridin-8-amine] | 5530 | 9.46 | 25 | 8.82
C[C@@]1(c2cc(Nc3nccc4cc(C#N)cnc34)ncc2F)CS(=O)(=O)[C@@](C)(C2CC2)C(N)=N1 [Example 4, 8-({4-[(3R,6S)-6-cyclopropyl-5-imino-3,6-dimethyl-1,1-dioxidothiomorpholin-3-yl]-5-fluoropyridin-2-yl}amino)-1,7-naphthyridine-3-carbonitrile] | 6650 | 8.82 | 19 | 8.42
COc1cnc2c(Nc3ccc(F)c([C@]4(C)CS(=O)(=O)[C@@](CF)(C5CC5)C(N)=N4)c3)nccc2n1 [Example 8, N-{3-[(3R,6S)-6-cyclopropyl-6-(fluoromethyl)-5-imino-3-methyl-1,1-dioxidothiomoipholin-3-yl]-4-fluorophenyl}-2-methoxypyrido[3,4-b]pyrazin-5-amine] | 4010 | 8.38 | 91 | 8.35
COc1cnc2c(Nc3cc([C@]4(C)CS(=O)(=O)[C@@](C)(C5CC5)C(N)=N4)c(F)cn3)nccc2n1 [Example 9, N-{4-[(3R,6S)-6-cyclopropyl-5-imino-3,6-dimethyl-1,1-dioxidothiomorpholin-3-yl]-5-fluoropyridin-2-yl}-2-methoxypyrido[3,4-b]pyrazin-5-amine] | > 9400 | 8.89 | 111 | 7.87
COc1cnc2c(Nc3cc([C@]4(C)CS(=O)(=O)[C@@](C)(C5CC5)C(N)=N4)c(F)cn3)ccnc2c1 [Example 21, (2S,5R)-2-cyclopropyl-5-(5-fluoro-2-((7-methoxy-1,5-naphthyridin-4-yl)amino)pyridin-4-yl)-3-imino-2,5-dimethylthiomorpholine 1,1-dioxide] |  | 8.72 |  | 8.28
COc1cnc2c(Nc3cc([C@]4(C)CS(=O)(=O)[C@@](C)(C5CC5)C(N)=N4)c(F)cn3)ncnc2n1 [Example 23, (2S,5R)-2-cyclopropyl-5-(5-fluoro-2-((7-methoxypteridin-4-yl)amino)pyridin-4-yl)-3-imino-2,5-dimethylthiomorpholine 1,1-dioxide] | > 9400 | 6.89 |  | 6.57
C[C@@]1(c2cc(Nc3nccc4cc(F)cnc34)ncc2F)CS(=O)(=O)[C@@](C)(C2CC2)C(N)=N1 [Example 26, (3R,6S)-5-amino-6-cyclopropyl-3-(5-fluoro-2-((3-fluoro-1,7-naphthyridin-8-yl)amino)pyridin-4-yl)-3,6-dimethyl-3,6-dihydro-2H-1,4-thiazine 1,1-dioxide] |  |  | 250 | 
CC#CCOc1cnc2c(Nc3cc([C@]4(C)CS(=O)(=O)[C@@](C)(C5CC5)C(N)=N4)c(F)cn3)nccc2n1 [Example 28, (3R,6S)-5-amino-3-(2-((2-(but-2-yn-1-yloxy)pyrido[3,4-b]pyrazin-5-yl)amino)-5-fluoropyridin-4-yl)-6-cyclopropyl-3,6-dimethyl-3,6-dihydro-2H-1,4-thiazine 1,1-dioxide] |  |  | 6.3 | 
CC#CCOc1cnc2c(Nc3cnc(F)c([C@]4(C)CS(=O)(=O)[C@@](C)(C5CC5)C(N)=N4)c3)nccc2n1 [Example 29, (3R,6S)-5-amino-3-(5-((2-(but-2-yn-1-yloxy)pyrido[3,4-b]pyrazin-5-yl)amino)-2-fluoropyridin-3-yl)-6-cyclopropyl-3,6-dimethyl-3,6-dihydro-2H-1,4-thiazine 1,1-dioxide] |  |  | 30 | 
CC#CCOc1cnc2c(Nc3cnc(F)c([C@]4(C)CS(=O)(=O)[C@@](C)(C5CC5)C(N)=N4)c3)nccc2c1 [Example 30, (3R,6S)-5-amino-3-(5-((3-(but-2-yn-1-yloxy)-1,7-naphthyridin-8-yl)amino)-2-fluoropyridin-3-yl)-6-cyclopropyl-3,6-dimethyl-3,6-dihydro-2H-1,4-thiazine 1,1-dioxide] |  |  | 28 | 
C[C@@]1(c2cc(Nc3ccnc4cccnc34)ncc2F)CS(=O)(=O)[C@@](C)(C2CC2)C(N)=N1 [Example 31, (3R,6S)-3-(2-((1,5-naphthyridin-4-yl)amino)-5-fluoropyridin-4-yl)-5-amino-6-cyclopropyl-3,6-dimethyl-3,6-dihydro-2H-1,4-thiazine 1,1-dioxide] |  |  | 180 | 
C[C@@]1(c2cc(Nc3ccnc4cc(F)cnc34)ncc2F)CS(=O)(=O)[C@@](C)(C2CC2)C(N)=N1 [Example 34, (3R,6S)-5-amino-6-cyclopropyl-3-(5-fluoro-2-((7-fluoro-1,5-naphthyridin-4-yl)amino)pyridin-4-yl)-3,6-dimethyl-3,6-dihydro-2H-1,4-thiazine 1,1-dioxide] |  |  | 32 | 
COc1cnc2c(Nc3ccc(F)c([C@]4(C)CS(=O)(=O)[C@@](C)(C5CC5)C(N)=N4)c3)ccnc2n1 [Example 37, (3R,6S)-5-amino-6-cyclopropyl-3-(2-fluoro-5-((3-methoxypyrido[2,3-b]pyrazin-8-yl)amino)phenyl)-3,6-dimethyl-3,6-dihydro-2H-1,4-thiazine 1,1-dioxide] |  |  | 23 | 
C[C@@]1(c2cc(Nc3ncnc4cc(C#N)cnc34)ncc2F)CS(=O)(=O)[C@@](C)(C2CC2)C(N)=N1 [Example 39, 4-((4-((3R,6S)-5-amino-6-cyclopropyl-3,6-dimethyl-1,1-dioxido-3,6-dihydro-2H-1,4-thiazin-3-yl)-5-fluoropyridin-2-yl)amino)pyrido[3,2-d]pyrimidine-7-carbonitrile] |  |  | 130 | 
CC1(C)C(=N)N[C@](C)(c2nc(Nc3cccc(Cl)c3F)ccc2F)CS1(=O)=O [WO′426 Ex. 30, reference compound] |  | 6.06 |  | 5.50
COc1ccccc1Nc1ccc(F)c([C@]2(C)CS(=O)(=O)C(C)(C)C(=N)N2)n1 [WO′426 Ex. 30a, reference compound] |  | 6.29 |  | 5.28
